Test results from the supplement of paper PMC8967900.

Columns and labels:
Assay in all cases: selective drug sensitivity score (sDSS, relative to normal bone marrow) (sDSS (score)); higher = more potent and effective on the cell line relative to normal bone marrow cells
Settings in all cases: 72 h
380 = tested on: 380
CCRF-CEM = tested on: CCRF-CEM
COG-LL-355h = tested on: COG-LL-355h
DND-41 = tested on: DND-41
HAL-01 = tested on: HAL-01
JURKAT = tested on: JURKAT
KARPAS-45 = tested on: KARPAS-45
KASUMI-9 = tested on: KASUMI-9
KOPN-8 = tested on: KOPN-8
MHH-CALL-3 = tested on: MHH-CALL-3
MN-60 = tested on: MN-60
MOLT-16 = tested on: MOLT-16
NALM-16 = tested on: NALM-16
P30-OHKUBO = tested on: P30-OHKUBO
PEER = tested on: PEER
RCH-ACV = tested on: RCH-ACV
REH = tested on: REH
RPMI-8402 = tested on: RPMI-8402
SEM cells = tested on: SEM cells
TMD5 = tested on: TMD5
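Also: ALL cell lines in 384-well plates, five doses spanning 10,000-fold, each plate scaled between vehicle and 100 µmol/L benzalkonium chloride controls, sDSS an adapted area-under-curve metric.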

SMILES | selective drug sensitivity score 380 | selective drug sensitivity score (CCRF-CEM) | selective drug sensitivity score (COG-LL-355h) | selective drug sensitivity score (DND-41) | selective drug sensitivity score (HAL-01) | selective drug sensitivity score (JURKAT) | selective drug sensitivity score (KARPAS-45) | selective drug sensitivity score (KASUMI-9) | selective drug sensitivity score (KOPN-8) | selective drug sensitivity score (MHH-CALL-3) | selective drug sensitivity score (MN-60) | selective drug sensitivity score (MOLT-16) | selective drug sensitivity score (NALM-16) | selective drug sensitivity score (P30-OHKUBO) | selective drug sensitivity score (PEER) | selective drug sensitivity score (RCH-ACV) | selective drug sensitivity score (REH) | selective drug sensitivity score (RPMI-8402) | selective drug sensitivity score (SEM cells) | selective drug sensitivity score (TMD5)
CCOC(=O)CCNc1cc(N2CCc3ccccc3CC2)nc(-c2ccccn2)n1 [GSK-J4] (top concentration 100000 nM) | -9.38 | -6.68 | -4.78 | -6.88 | 7.72 | -5.98 | -7.28 | -7.88 | -8.88 | -13.2 | -6.58 | -5.48 | -8.38 | -8.18 | -5.48 | -8.58 | -7.88 | -8.18 | -8.58 | -9.38
Cc1cc(Nc2cc(CN3CCOCC3)c3nc(C)c(Cc4ccc(Cl)cc4F)n3n2)n[nH]1 [Gandotinib] (top concentration 10000 nM) | -8.02 | 5.68 | 2.18 | 7.28 | 4.68 | 3.98 | 9.48 | 9.88 | 8.28 | 1.18 | -3.22 | 5.68 | -1.52 | 6.28 | 8.68 | 8.88 | 4.98 | 0.78 | 10.5 | -0.82
NC(=O)NO [Hydroxyurea] (top concentration 1000000 nM) | -1.04 | 3.96 | 0.66 | 1.16 | 5.26 | 3.16 | 2.86 | 4.26 | 11.9 | -4.44 | -0.04 | 5.76 | 0.86 | 7.66 | 5.56 | 9.66 | 4.06 | 3.46 | 5.36 | -3.24
Cc1ccc(NC(=O)c2ccc(CN3CCN(C)CC3)cc2)cc1Nc1nccc(-c2cccnc2)n1 [Imatinib] (top concentration 10000 nM) | -0.44 | -0.44 | -0.44 | 0.26 | -0.44 | 0.66 | 1.96 | -0.44 | -0.04 | -0.44 | -0.44 | 0.46 | -0.44 | 0.06 | 12 | 2.16 | 0.56 | 1.46 | 0.06 | 8.96
CC(C)NC[C@@H](C(=O)N1CCN(c2ncnc3c2[C@H](C)C[C@H]3O)CC1)c1ccc(Cl)cc1 [Ipatasertib] (top concentration 10000 nM) | 7 | 10.7 | 5.8 | 1.1 | 1.8 | 7.1 | 5.2 | -0.2 | 4.3 | 0.2 | -1.8 | 10.9 | 1.7 | 1.9 | -1.6 | 12 | 13.2 | 4.8 | 3.3 | -1.8
